Reference: patent US9131720B2, “High-potency sweetener composition with phytosterol and compositions sweetened therewith” (The Coca-Cola Company, priority 2005, dated 2015)

Key:
[1] = Sensory evaluation of sweetness linger by a panel of experts; format: in vivo; details: for Sweetness linger rating: 3-4 min after water rinse; for Sweetness Linger rating defined for control samples: scale anchors of the protocol, sucrose, 500 ppm REBA control sample
Procedure: In a particular embodiment, a panel of assessors is used to measure the reduction of sweetness linger. Briefly described, a panel of assessors (generally 8 to 12 individuals) is trained to evaluate sweetness perception and measure sweetness at several time points from when the sample is initially taken into the mouth until 3 minutes after it has been expectorated. […] A decrease in score for a time point measured after the sample has cleared the mouth indicates there has been a reduction in sweetness perception.
The panel of assessors may be trained using procedures well known to those of ordinary skill in the art. In a particular embodiment, the panel of assessors may be trained using the Spectrum™ Descriptive Analysis Method (Meilgaard et al, Sensory Evaluation Techniques, 3rd edition, Chapter 11). Desirably, the focus of training should be the recognition of and the measure of the basic tastes; specifically, sweet. In order to ensure accuracy and reproducibility of results, each assessor should repeat the measure of the reduction of sweetness linger about three to about five times per sample, taking at least a five minute break between each repetition and/or sample and rinsing well with water to clear the mouth.
Generally, the method of measuring sweetness comprises taking a 10 mL sample into the mouth, holding the sample in the mouth for 5 seconds and gently swirling the sample in the mouth, rating the sweetness intensity perceived at 5 seconds, expectorating the sample (without swallowing following expectorating the sample), rinsing with one mouthful of water (e.g., vigorously moving water in mouth as if with mouth wash) and expectorating the rinse water, rating the sweetness intensity perceived immediately upon expectorating the rinse water, waiting 45 seconds and, while waling those 45 seconds, identifying the time of maximum perceived sweetness intensity and rating the sweetness intensity at that time (moving the mouth normally and swallowing as needed), rating the sweetness intensity after another 10 seconds, rating the sweetness intensity after another 60 seconds (cumulative 120 seconds after rinse), and rating the sweetness intensity after still another 60 seconds (cumulative 180 seconds after rinse). Between samples take a 5 minute break, rinsing well with water to clear the mouth.
Sensory evaluation of the samples prepared in Example Set G was carried out under the following protocol, similar to that described hereinabove. In this test protocol, none of the samples were swallowed. All samples were expectorated and the mouth was rinsed with water after the tasting. Immediately upon sensing maximal sweetness, the sample was expectorated, the mouth was rinsed with water and the rate of sweetness decay (“Sweetness Linger”) was measured, where attention was focused on the sweetness 3-4 min after the water rinse. After sample tasting was complete, a salty oyster cracker was chewed followed by a water rinse, and at least 5 minutes followed before tasting the next sample. The sweetness linger was rated by a panel of experts in the sensory evaluation of foods and beverages using the following scale: 0=no sweetness linger, 1=very slight sweetness linger, 2=slight sweetness linger, 3 moderate sweetness linger, 4=moderately high sweetness linger, 5=high sweetness linger.
The “Sweetness Linger” rating for sucrose observed by this protocol is defined as 0. The Sweetness Linger of a 500 ppm of REBA control sample is defined as 5. […]

[2] = format: physicochemical
Procedure: A solution of rebaudioside A (>97% pure by HPLC) was prepared in double distilled water (12.5 gm in 50 mL, 25% concentration) by stirring the mixture at 40° C. for 5 minutes. An amorphous rebaudioside A polymorph was formed by immediately using the clear solution for spray drying with the Lab-Plant spray drier SD-04 instrument (Lab-Plant Ltd., West Yorkshire, U.K.). The solution was fed through the feed pump into the nozzle atomizer which atomized it into a spray of droplets with the help of a constant flow of nitrogen/air. […] This dry powder (11-12 g, H2O 6.74%) was discharged continuously from the drying chamber and was collected in a bottle.

[3] = Rate of dissolution in H2O at 25° C. of rebaudioside A polymorphs; format: physicochemical
[4] = 500 ppm REBA (H41: 360 ppm) in carbon-treated water with phosphoric acid (75%), pH 2.4-2.5, scale 0=no to 5=high sweetness linger

| Molecule | Sweetness linger rating [1, 4] | Sweetness Linger rating defined for control samples [1] | Sweetness linger rating ([1]; 400 ppm REBA in citric acid/potassium citrate composition equivalent to diet lemon-lime beverage, scale 0=no, 1=very slight, 2=slight, 3=moderate, 4=moderately high, 5=high sweetness linger) | Solubility in water at room temperature [2] [%] | Rate of dissolution in H2O at 25° C. [3] |
| --- | --- | --- | --- | --- | --- |
| OC[C@H]1O[C@@](CO)(O[C@H]2O[C@H](CO)[C@@H](O)[C@H](O)[C@H]2O)[C@@H](O)[C@@H]1O [sugar, sucrose] | 0 | 0 | – | – | – |
| rebaudioside A | 5 | 5 | 5 | – | – |
| rebaudioside A [Form 4] | – | – | – | > 35.0 | (>35.0%/ %/5 minutes |
